17 compounds from patent US9346809B2 (LEO PHARMA A/S, priority 2009, dated 2016) can be followed below.

What all share (format): biochemical
In test [1] the target is T1, JAK2 (catalytic domain, His-tag) (Homo sapiens, UniProt O60674).
T1 construct: All four purified enzymes contain only the catalytic domain; His (N); purchased Carna Biosciences, Inc; host or cells: baculovirus expression system
Kind of test: JAK kinase assay (HTRF, phosphorylation of TK substrate-biotin), JAK2. Conditions: ATP at Km (4 μM), read-out: JAK2 kinase inhibitory activity (EC50 indicator). Summed up:
(§1)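 Catalytic-domain kinases phosphorylated 1 μM biotin-TK substrate at ATP Km (JAK1 7 μM, JAK2 4 μM, JAK3 2 μM, TYK2 13 μM) in Hepes pH 7.0 with DTT and MgCl2, for 20-30 min at RT; JAK1 and TYK2 also had 50 nM SEB. Detection was by HTRF (streptavidin-XL665/Cryptate antibody) overnight, giving EC50.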
In general terms: TR-FRET usually uses a lanthanide donor and a delayed reading to cut background.

The target of test [2] is T2, TYK2 (aa 871-1187, catalytic domain, GST-tag) (Homo sapiens, UniProt P29597).
T2 construct: JAK1 (aa 850-1154) and TYK2 (aa 871-1187) are expressed with an N-terminally fused GST-tag; GST (N); purchased Carna Biosciences, Inc; host or cells: baculovirus expression system
T2 sequence (P29597 871-1187): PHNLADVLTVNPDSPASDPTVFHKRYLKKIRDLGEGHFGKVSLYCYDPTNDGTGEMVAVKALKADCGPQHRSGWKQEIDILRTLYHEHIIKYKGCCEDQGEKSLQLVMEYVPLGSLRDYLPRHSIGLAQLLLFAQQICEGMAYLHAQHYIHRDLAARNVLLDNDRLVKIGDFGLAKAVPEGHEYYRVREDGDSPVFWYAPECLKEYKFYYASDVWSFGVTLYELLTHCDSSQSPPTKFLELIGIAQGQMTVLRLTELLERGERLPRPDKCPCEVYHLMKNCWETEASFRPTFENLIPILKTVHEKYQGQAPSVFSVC
The test is described as follows: JAK kinase assay (HTRF, phosphorylation of TK substrate-biotin), TYK2. Conditions: ATP at Km (13 μM), read-out: TYK2 kinase inhibitory activity (EC50 indicator). Summed up: as §1

In test [3] the target is T3, JAK3 (catalytic domain, His-tag) (Homo sapiens, UniProt P52333).
T3 construct: All four purified enzymes contain only the catalytic domain; His (N); purchased Carna Biosciences, Inc; host or cells: baculovirus expression system
T3 sequence (P52333 822-1111 limits assumed): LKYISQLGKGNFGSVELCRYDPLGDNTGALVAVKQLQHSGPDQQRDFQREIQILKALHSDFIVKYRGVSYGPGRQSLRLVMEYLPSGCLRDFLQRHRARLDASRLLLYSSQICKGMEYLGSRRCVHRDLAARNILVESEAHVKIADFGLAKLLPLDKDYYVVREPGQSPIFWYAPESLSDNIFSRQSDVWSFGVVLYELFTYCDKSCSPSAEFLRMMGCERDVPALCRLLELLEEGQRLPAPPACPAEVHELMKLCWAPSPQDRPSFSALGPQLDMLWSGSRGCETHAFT
Kind of test: JAK kinase assay (HTRF, phosphorylation of TK substrate-biotin), JAK3. The note with it: ATP at Km (2 μM), read-out: JAK3 kinase inhibitory activity (EC50 indicator). Summed up:
as §1

Test [4] deals with T4, JAK1 (aa 850-1154, catalytic domain, GST-tag) (Homo sapiens, UniProt P23458).
T4 construct: JAK1 (aa 850-1154) and TYK2 (aa 871-1187) are expressed with an N-terminally fused GST-tag; GST (N); purchased Carna Biosciences, Inc; host or cells: baculovirus expression system
T4 sequence (P23458 850-1154): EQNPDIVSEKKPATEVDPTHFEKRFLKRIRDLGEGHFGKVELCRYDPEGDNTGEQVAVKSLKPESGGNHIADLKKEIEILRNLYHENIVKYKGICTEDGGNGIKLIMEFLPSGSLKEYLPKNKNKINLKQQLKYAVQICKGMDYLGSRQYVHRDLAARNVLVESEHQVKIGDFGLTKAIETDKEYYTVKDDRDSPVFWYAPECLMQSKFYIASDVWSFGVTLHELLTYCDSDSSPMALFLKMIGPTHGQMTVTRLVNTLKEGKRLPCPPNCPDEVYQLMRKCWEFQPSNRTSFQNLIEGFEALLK
The test is described as follows: JAK kinase assay (HTRF, phosphorylation of TK substrate-biotin), JAK1. Conditions: ATP at Km (7 μM), read-out: JAK1 kinase inhibitory activity (EC50 indicator). A digest of the protocol: as §1

The term EC50 denotes the concentration giving half of the maximal effect.

Where two headings read alike, the source gives them in different places. Some results are limits rather than exact numbers.

T1 sequence (O60674 849-1124 limits assumed): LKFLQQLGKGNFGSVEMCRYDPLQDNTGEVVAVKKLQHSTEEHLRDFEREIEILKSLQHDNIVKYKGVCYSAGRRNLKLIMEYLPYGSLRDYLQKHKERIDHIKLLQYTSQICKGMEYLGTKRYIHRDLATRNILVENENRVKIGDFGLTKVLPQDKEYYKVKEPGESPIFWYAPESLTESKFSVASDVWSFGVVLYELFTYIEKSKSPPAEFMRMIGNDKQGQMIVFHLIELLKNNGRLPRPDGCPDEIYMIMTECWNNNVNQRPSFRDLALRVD

For `N#CCc1ccc(C(=O)N2[C@@H]3CC[C@@H]2CN(c2ncnc4[nH]ccc24)C3)cc1` [Example 175, {4-[3-(7H-Pyrrolo[2,3-d]pyrimidin-4-yl)-3,8-diaza-bicyclo[3.2.1]octane-8-carbonyl]-phenyl}-acetonitrile], the EC50 in test [1] was below 100 nM; in test [2] it was above 500 nM; in test [3] it was 100 to 500 nM; in test [4], below 100 nM.
With `O=C([C@H]1CC[C@H](O)CC1)N1CCN(c2ncnc3[nH]ccc23)CC12CC2` [Example 158, (4-Hydroxy-cyclohexyl)-[7-(7H-pyrrolo[2,3-d]pyrimidin-4-yl)-4,7-diaza-spiro[2.5]oct-4-yl]-methanone], the EC50 in test [1] is below 100 nM; in test [2] it was above 500 nM; in test [3], 100 to 500 nM; in test [4], 100 to 500 nM.
Take `O=C(c1cc2c(F)cccc2[nH]1)N1CCN(c2ncnc3[nH]ccc23)CC12CC2` [Example 368, (4-Fluoro-1H-indol-2-yl)-[7-(7H-pyrrolo[2,3-d]pyrimidin-4-yl)-4,7-diaza-spiro[2.5]oct-4-yl]-methanone]: the 50% effective concentration (EC50) was below 100 nM in test [1] (HTRF assay), 100 to 500 nM in test [2] (HTRF assay), 100 to 500 nM in test [3] (HTRF assay) and below 100 nM in test [4] (HTRF assay).
Turning to `N#Cc1ccc(CC(=O)N2CCN(c3ncnc4[nH]cc(Cl)c34)CC23CC3)cc1` [Example 324, 4-{2-[7-(5-Chloro-7H-pyrrolo[2,3-d]pyrimidin-4-yl)-4,7-diaza-spiro[2.5]oct-4-yl]-2-oxo-ethyl}-benzonitrile], the EC50 is below 100 nM in test [1] (HTRF assay), above 500 nM in test [2] (HTRF assay), below 100 nM in test [3] (HTRF assay) and below 100 nM in test [4] (HTRF assay).
Regarding `N#CC1(C(=O)N2C[C@@H]3C[C@H]2CN3c2ncnc3[nH]ccc23)CC1` [Example 270, 1-[5-(7H-Pyrrolo[2,3-d]pyrimidin-4-yl)-2,5-diaza-bicyclo[2.2.1]heptane-2-carbonyl]-cyclopropanecarbonitrile], the concentration giving a half-maximal response (EC50) in test [1] (HTRF assay), in test [2] (HTRF assay), in test [3] (HTRF assay) and in test [4] (HTRF assay) was above 500 nM throughout.
Consider `Cc1c[nH]c2ncnc(N3CCN(C(=O)c4cnccn4)C4(CC4)C3)c12` [Example 326, [7-(5-Methyl-7H-pyrrolo[2,3-d]pyrimidin-4-yl)-4,7-diaza-spiro[2.5]oct-4-yl]-pyrazin-2-yl-methanone], for which the half-maximal effective concentration (EC50) in test [1] (HTRF assay), in test [2] (HTRF assay), in test [3] (HTRF assay) and in test [4] (HTRF assay) was above 500 nM in each case.
As for `N#CCCC(=O)N1CCN(c2ncnc3[nH]ccc23)CC12CC2` [Example 167, 4-Oxo-4-[7-(7H-pyrrolo[2,3-d]pyrimidin-4-yl)-4,7-diaza-spiro[2.5]oct-4-yl]-butyronitrile], the concentration giving a half-maximal response (EC50) in test [1] is below 100 nM; in test [2], 100 to 500 nM; in test [3] it was below 100 nM; in test [4], below 100 nM.
For `Cc1c[nH]c2ncnc(N3CCN(C(=O)Cc4ccc(C(F)(F)F)cc4)C4(CC4)C3)c12` [Example 331, 1-[7-(5-Methyl-7H-pyrrolo[2,3-d]pyrimidin-4-yl)-4,7-diaza-spiro[2.5]oct-4-yl]-2-(4-trifluoromethyl-phenyl)-ethanone], the concentration for a half-maximal effect (EC50) in test [1] (HTRF assay) was 100 to 500 nM; in test [2] (HTRF assay) it was above 500 nM; in test [3] (HTRF assay), below 100 nM; in test [4] (HTRF assay) it was 100 to 500 nM.
As to `O=C(c1ccc(C(F)(F)F)cc1)N1CCN(c2ncnc3[nH]ccc23)CC12CC2` [Example 48, [7-(7H-Pyrrolo[2,3-d]pyrimidin-4-yl)-4,7-diaza-spiro[2.5]oct-4-yl]-(4-trifluoromethylphenyl)methanone], the EC50 was below 100 nM in test [1], above 500 nM in test [2], 100 to 500 nM in test [3] and below 100 nM in test [4].
As for `Nc1nc(N2CCN(C(=O)Cc3ccc(C(F)(F)F)cc3)C3(CC3)C2)c2cc[nH]c2n1` [Example 309, 1-[7-(2-Amino-7H-pyrrolo[2,3-d]pyrimidin-4-yl)-4,7-diaza-spiro[2.5]oct-4-yl]-2-(4-trifluoromethyl-phenyl)-ethanone], the EC50 in test [1] (HTRF assay) is below 100 nM; in test [2] (HTRF assay) it was above 500 nM; in test [3] (HTRF assay) it was below 100 nM; in test [4] (HTRF assay), below 100 nM.
Turning to `N#Cc1ccc(CC(=O)N2C[C@@H]3C[C@H]2CN3c2ncnc3[nH]ccc23)cc1` [Example 278, 4-{2-Oxo-2-[5-(7H-pyrrolo[2,3-d]pyrimidin-4-yl)-2,5-diaza-bicyclo[2.2.1]hept-2-yl]-ethyl}-benzonitrile], the EC50 in test [1] (HTRF assay), in test [2] (HTRF assay), in test [3] (HTRF assay) and in test [4] (HTRF assay) was above 500 nM in each case.
On to `CC(C)CNS(=O)(=O)c1csc(C(=O)N2CCN(c3ncnc4[nH]ccc34)CC23CC3)c1` [Example 423, 5-[7-(7H-Pyrrolo[2,3-d]pyrimidin-4-yl)-4,7-diaza-spiro[2.5]octane-4-carbonyl]-thiophene-3-sulfonic acid isobutyl-amide], for which the EC50 is below 100 nM in test [1] (HTRF assay), above 500 nM in test [2] (HTRF assay), 100 to 500 nM in test [3] (HTRF assay) and below 100 nM in test [4] (HTRF assay).
For `CN(C)S(=O)(=O)c1ccc(C(=O)N2CCN(c3ncnc4[nH]ccc34)CC23CC3)cc1` [Example 189, N,N-Dimethyl-4-[7-(7H-pyrrolo[2,3-d]pyrimidin-4-yl)-4,7-diaza-spiro[2.5]octane-4-carbonyl]-benzenesulfonamide], the EC50 in test [1] is below 100 nM; in test [2], 100 to 500 nM; in test [3], 100 to 500 nM; in test [4] it was below 100 nM.
For `COC(=O)c1cc2c(N3CCN(C(=O)Cc4ccc(CC#N)cc4)C4(CC4)C3)ncnc2[nH]1` [Example 122, 4-{4-[2-(4-Cyanomethyl-phenyl)-acetyl]-4,7-diaza-spiro[2.5]oct-7-yl}-7H-pyrrolo[2,3-d]pyrimidine-6-carboxylic acid methyl ester], the 50% effective concentration (EC50) in test [1], in test [2], in test [3] and in test [4] was above 500 nM throughout.
As to `CS(=O)(=O)c1cc(C(=O)N2CCN(c3ncnc4[nH]ccc34)CC23CC3)ccc1F` [Example 366, (4-Fluoro-3-methanesulfonyl-phenyl)-[7-(7H-pyrrolo[2,3-d]pyrimidin-4-yl)-4,7-diaza-spiro[2.5]oct-4-yl]-methanone], the EC50 was below 100 nM in test [1] (HTRF assay), above 500 nM in test [2] (HTRF assay), 100 to 500 nM in test [3] (HTRF assay) and below 100 nM in test [4] (HTRF assay).
Turning to `N#Cc1ccc(C(=O)N2CCN(c3nc(N)nc4[nH]ccc34)CC23CC3)cc1` [Example 303, 4-[7-(2-Amino-7H-pyrrolo[2,3-d]pyrimidin-4-yl)-4,7-diaza-spiro[2.5]octane-4-carbonyl]-benzonitrile], the EC50 in test [1] (HTRF assay) was below 100 nM; in test [2] (HTRF assay) it was above 500 nM; in test [3] (HTRF assay) it was 100 to 500 nM; in test [4] (HTRF assay) it was below 100 nM.
As for `COc1cnc2[nH]ccc2c1N1CCN(C(=O)c2cc3ccccc3[nH]2)C2(CC2)C1` [Example 288, (1H-Indol-2-yl)-[7-(5-methoxy-1H-pyrrolo[2,3-b]pyridin-4-yl)-4,7-diaza-spiro[2.5]oct-4-yl]-methanone], the EC50 is above 500 nM in test [1] (HTRF assay), above 500 nM in test [2] (HTRF assay), 100 to 500 nM in test [3] (HTRF assay) and above 500 nM in test [4] (HTRF assay).
